In PMC5218480 (PLoS ONE, 2017):

Tested on: MV-4-11 cells
Assay: Gene expression microarray analysis (Affymetrix PrimeView) and GSEA
Type: cell-based, human
Set-up: RFU PODN (11730768_x_at) / Fold change /veh PODN (11730768_x_at) / RFU LINC00158 (11744669_a_at) / Fold change /veh LINC00158 (11744669_a_at) / RFU DUSP10 (11751237_a_at) / Fold change /veh DUSP10 (11751237_a_at) / RFU ID3 (11757404_x_at) / Fold change /veh ID3 (11757404_x_at) / RFU PLEKHG5 (11737974_s_at) / Fold change /veh PLEKHG5 (11737974_s_at) / RFU LRRC4B (11730491_at) / Fold change /veh LRRC4B (11730491_at) / RFU GIMAP4 (11747438_a_at) / Fold change /veh GIMAP4 (11747438_a_at) / RFU KRT8 (11758183_x_at) / Fold change /veh KRT8 (11758183_x_at) / RFU CNN1 (11734310_a_at) / Fold change /veh CNN1 (11734310_a_at) / RFU VPS37D (11726825_at) / Fold change /veh VPS37D (11726825_at) / RFU C10orf10 (11716522_x_at) / Fold change /veh C10orf10 (11716522_x_at) / RFU KIR2DL2 /// KIR2DL4 /// KIR2DL5A /// KIR2DL5B /// KIR2DS1 /// KIR2DS2 /// KIR2DS3 /// KIR2DS4 /// KIR3DL3 /// KIR3DL3 /// KIR3DS1 (11738374_at) / Fold change /veh KIR2DL2 /// KIR2DL4 /// KIR2DL5A /// KIR2DL5B /// KIR2DS1 /// KIR2DS2 /// KIR2DS3 /// KIR2DS4 /// KIR3DL3 /// KIR3DL3 /// KIR3DS1 (11738374_at) / RFU C1QL1 (11718748_at) / Fold change /veh C1QL1 (11718748_at) / RFU TMPRSS4 (11747572_a_at) / Fold change /veh TMPRSS4 (11747572_a_at) / RFU HAMP (11756126_x_at) / Fold change /veh HAMP (11756126_x_at) / RFU RNFT2 (11725882_a_at) / Fold change /veh RNFT2 (11725882_a_at) / RFU NR4A2 (11747474_a_at) / Fold change /veh NR4A2 (11747474_a_at) / RFU ABCC12 (11746883_a_at) / Fold change /veh ABCC12 (11746883_a_at) / RFU TMEM136 (11760407_x_at) / Fold change /veh TMEM136 (11760407_x_at) / RFU CLDN22 /// WWC2 (11732394_at) / Fold change /veh CLDN22 /// WWC2 (11732394_at) / RFU HLA-DPB1 (11760878_x_at) / Fold change /veh HLA-DPB1 (11760878_x_at) / RFU SPINT1 (11716480_a_at) / Fold change /veh SPINT1 (11716480_a_at) / RFU GAP43 (11754022_s_at) / Fold change /veh GAP43 (11754022_s_at) / RFU A4GNT (11735810_at) / Fold change /veh A4GNT (11735810_at) / RFU PRB3 (11715151_x_at) / Fold change /veh PRB3 (11715151_x_at) / RFU TUBB4B (11761932_at) / Fold change /veh TUBB4B (11761932_at) / RFU CAPN14 (11732068_a_at) / Fold change /veh CAPN14 (11732068_a_at) / RFU TMCC2 (11721928_a_at) / Fold change /veh TMCC2 (11721928_a_at) / RFU IRGQ (11745062_a_at) / Fold change /veh IRGQ (11745062_a_at) / RFU FAM174B (11720279_a_at) / Fold change /veh FAM174B (11720279_a_at) / RFU TMPRSS4 (11748680_a_at) / Fold change /veh TMPRSS4 (11748680_a_at) / RFU FAM212B (11763350_a_at) / Fold change /veh FAM212B (11763350_a_at) / RFU PLEKHG5 (11743358_a_at) / Fold change /veh PLEKHG5 (11743358_a_at) / RFU ZSCAN30 (11745921_a_at) / Fold change /veh ZSCAN30 (11745921_a_at) / RFU CMKLR1 (11741424_a_at) / Fold change /veh CMKLR1 (11741424_a_at) / RFU LOC101060620 /// MAPK8IP1 (11723275_at) / Fold change /veh LOC101060620 /// MAPK8IP1 (11723275_at) / RFU SPTSSB (11747773_x_at) / Fold change /veh SPTSSB (11747773_x_at) / RFU PRSS12 (11739890_at) / Fold change /veh PRSS12 (11739890_at) / RFU BIN1 (11741810_x_at) / Fold change /veh BIN1 (11741810_x_at) / RFU WNT11 (11732464_a_at) / Fold change /veh WNT11 (11732464_a_at) / RFU C10orf10 (11716521_a_at) / Fold change /veh C10orf10 (11716521_a_at) / RFU C5orf56 (11738089_at) / Fold change /veh C5orf56 (11738089_at) / RFU CYB561 (11721691_x_at) / Fold change /veh CYB561 (11721691_x_at) / RFU ANKRD19P (11752326_a_at) / Fold change /veh ANKRD19P (11752326_a_at) / RFU OR2T12 /// OR2T33 /// OR2T8 (11738714_s_at) / Fold change /veh OR2T12 /// OR2T33 /// OR2T8 (11738714_s_at) / RFU VCAN (11748164_a_at) / Fold change /veh VCAN (11748164_a_at) / RFU JSRP1 (11732532_at) / Fold change /veh JSRP1 (11732532_at) / RFU KRTAP10-11 (11738290_x_at) / Fold change /veh KRTAP10-11 (11738290_x_at) / RFU MYO3A (11730013_a_at) / Fold change /veh MYO3A (11730013_a_at) / RFU EBF3 (11725865_a_at) / Fold change /veh EBF3 (11725865_a_at) / RFU CAMK2N1 (11719241_x_at) / Fold change /veh CAMK2N1 (11719241_x_at) / RFU C5orf56 (11738088_a_at) / Fold change /veh C5orf56 (11738088_a_at) / RFU OLFML3 (11715873_a_at) / Fold change /veh OLFML3 (11715873_a_at) / RFU LOC100653217 /// NTM (11731650_a_at) / Fold change /veh LOC100653217 /// NTM (11731650_a_at) / RFU MAPK11 (11762145_a_at) / Fold change /veh MAPK11 (11762145_a_at) / RFU FIZ1 (11724087_x_at) / Fold change /veh FIZ1 (11724087_x_at) / RFU OASL (11726364_x_at) / Fold change /veh OASL (11726364_x_at) / RFU SOX15 (11748057_x_at) / Fold change /veh SOX15 (11748057_x_at) / RFU CD79A (11719716_a_at) / Fold change /veh CD79A (11719716_a_at) / RFU HIST1H1D (11736915_at) / Fold change /veh HIST1H1D (11736915_at) / RFU CASKIN2 (11723855_a_at) / Fold change /veh CASKIN2 (11723855_a_at) / RFU LOC730098 (11760151_x_at) / Fold change /veh LOC730098 (11760151_x_at) / RFU OR4N2 (11742367_at) / Fold change /veh OR4N2 (11742367_at) / RFU PRRT2 (11749266_a_at) / Fold change /veh PRRT2 (11749266_a_at) / RFU SNX32 (11753110_a_at) / Fold change /veh SNX32 (11753110_a_at) / RFU CDHR5 (11726645_a_at) / Fold change /veh CDHR5 (11726645_a_at) / RFU RCAN1 (11760418_a_at) / Fold change /veh RCAN1 (11760418_a_at) / RFU FAM167A (11723789_a_at) / Fold change /veh FAM167A (11723789_a_at) / RFU FAM26E (11764081_at) / Fold change /veh FAM26E (11764081_at) / RFU ISYNA1 (11749810_s_at) / Fold change /veh ISYNA1 (11749810_s_at) / RFU ACY1 (11761880_at) / Fold change /veh ACY1 (11761880_at) / RFU 11764098_at / Fold change /veh 11764098_at / RFU SAMD14 (11745864_x_at) / Fold change /veh SAMD14 (11745864_x_at) / RFU NPB (11741838_a_at) / Fold change /veh NPB (11741838_a_at) / RFU TMPRSS6 (11731388_a_at) / Fold change /veh TMPRSS6 (11731388_a_at) / RFU KRTAP10-2 (11738614_at) / Fold change /veh KRTAP10-2 (11738614_at) / RFU ARHGAP8 /// PRR5-ARHGAP8 (11727945_x_at) / Fold change /veh ARHGAP8 /// PRR5-ARHGAP8 (11727945_x_at) / RFU KRTAP5-7 /// NADSYN1 (11734609_at) / Fold change /veh KRTAP5-7 /// NADSYN1 (11734609_at) / RFU RASL12 (11751679_a_at) / Fold change /veh RASL12 (11751679_a_at) / RFU CDKN2B (11736163_a_at) / Fold change /veh CDKN2B (11736163_a_at) / RFU PRF1 (11729649_at) / Fold change /veh PRF1 (11729649_at) / RFU, ZNF638 /// ZNF638-IT1 / Fold change vs veh, ZNF638 /// ZNF638-IT1 / RFU, PANK3 / Fold change vs veh, PANK3 / RFU, SH3YL1 / Fold change vs veh, SH3YL1 / RFU, ZEB2 / Fold change vs veh, ZEB2 / RFU, NRIP1 / Fold change vs veh, NRIP1 / RFU, PTTG1IP / Fold change vs veh, PTTG1IP / RFU, CAPN2 / Fold change vs veh, CAPN2 / RFU, MED14 / Fold change vs veh, MED14 / RFU, SNORA58 / Fold change vs veh, SNORA58 / RFU, C1orf63 / Fold change vs veh, C1orf63 / RFU, LRRFIP1 / Fold change vs veh, LRRFIP1 / RFU, NDUFAF7 / Fold change vs veh, NDUFAF7 / RFU, SLC12A2 / Fold change vs veh, SLC12A2 / RFU, IBTK / Fold change vs veh, IBTK / RFU, ESF1 / Fold change vs veh, ESF1 / Fold change vs veh, TMEM50B / RFU, TAOK1 / Fold change vs veh, TAOK1 / RFU, ACBD3 / Fold change vs veh, ACBD3 / RFU, TMA16 / Fold change vs veh, TMA16 / RFU, RWDD3 / Fold change vs veh, RWDD3 / RFU, BCAT1 / Fold change vs veh, BCAT1 / RFU, EDEM3 / Fold change vs veh, EDEM3 / RFU, TMEM33 / Fold change vs veh, TMEM33 / RFU, WDR75 / Fold change vs veh, WDR75 / RFU, AHCTF1 / Fold change vs veh, AHCTF1 / RFU, TFRC / Fold change vs veh, TFRC / RFU, ZDHHC17 / Fold change vs veh, ZDHHC17 / RFU, NOM1 / Fold change vs veh, NOM1 / RFU, ARL8B / Fold change vs veh, ARL8B / RFU, ZBTB11 / Fold change vs veh, ZBTB11 / RFU, TAMM41 / Fold change vs veh, TAMM41 / RFU, KIAA1704 /// LOC100996395 / Fold change vs veh, KIAA1704 /// LOC100996395 / RFU, ING1 / Fold change vs veh, ING1 / RFU, TRMT61B / Fold change vs veh, TRMT61B / RFU, FUBP3 / Fold change vs veh, FUBP3 / RFU, TP53 / Fold change vs veh, TP53 / RFU, TNKS2 / Fold change vs veh, TNKS2 / RFU, ZFP14 / Fold change vs veh, ZFP14 / RFU, ACTR2 / Fold change vs veh, ACTR2 / RFU, PPP3R1 / Fold change vs veh, PPP3R1 / RFU, PIK3R1 / Fold change vs veh, PIK3R1 / RFU, HNRNPA1 / Fold change vs veh, HNRNPA1 / RFU, RNF170 / Fold change vs veh, RNF170 / RFU, ZNF28 / Fold change vs veh, ZNF28 / RFU, RNGTT / Fold change vs veh, RNGTT / RFU, OGT / Fold change vs veh, OGT / RFU, BRD1 / Fold change vs veh, BRD1 / RFU, MARS / Fold change vs veh, MARS / RFU, ZNF655 / Fold change vs veh, ZNF655 / RFU, FAHD1 / Fold change vs veh, FAHD1 / RFU, BDP1 / Fold change vs veh, BDP1 / RFU, LRRCC1 / Fold change vs veh, LRRCC1 / RFU, ARID1A / Fold change vs veh, ARID1A / RFU, ZNF146 / Fold change vs veh, ZNF146 / RFU, ZNF330 / Fold change vs veh, ZNF330 / RFU, GPN3 / Fold change vs veh, GPN3 / RFU, C9orf123 / Fold change vs veh, C9orf123 / RFU, N4BP2L2 / Fold change vs veh, N4BP2L2 / RFU, ARFIP1 / Fold change vs veh, ARFIP1 / RFU, FAM179B / Fold change vs veh, FAM179B / RFU, BCL10 / Fold change vs veh, BCL10 / RFU, UHRF1BP1L / Fold change vs veh, UHRF1BP1L / RFU, BET1 / Fold change vs veh, BET1 / RFU, CNOT2 / Fold change vs veh, CNOT2 / RFU, ZNF268 / Fold change vs veh, ZNF268 / Fold change vs veh, ZNF507 / RFU, DGCR2 / Fold change vs veh, DGCR2 / RFU, WDSUB1 / Fold change vs veh, WDSUB1 / Fold change vs veh, HSP90B1 /// MIR3652 / RFU, ADSS / Fold change vs veh, ADSS / RFU, GK / Fold change vs veh, GK / RFU, ZNF148 / Fold change vs veh, ZNF148 / RFU, TAF9 / Fold change vs veh, TAF9 / RFU, SLC1A5 / Fold change vs veh, SLC1A5 / RFU, SLMO2 / Fold change vs veh, SLMO2 / RFU, ABCC4 / Fold change vs veh, ABCC4 / RFU, LOC101060439 /// RAP1B / Fold change vs veh, LOC101060439 /// RAP1B / RFU, RFX7 / Fold change vs veh, RFX7 / RFU, GTPBP10 / Fold change vs veh, GTPBP10 / RFU, CNEP1R1 / Fold change vs veh, CNEP1R1 / RFU, BIVM-ERCC5 /// ERCC5 / Fold change vs veh, BIVM-ERCC5 /// ERCC5 / RFU, ILF3 / Fold change vs veh, ILF3 / RFU 11762660_at / Fold change /veh 11762660_at / RFU VCAN (11757783_s_at) / Fold change /veh VCAN (11757783_s_at) / RFU DDX43 (11728927_at) / Fold change /veh DDX43 (11728927_at) / RFU KRT8 (11758188_x_at) / Fold change /veh KRT8 (11758188_x_at) / RFU NKD1 (11759106_at) / Fold change /veh NKD1 (11759106_at) / RFU SRD5A1 (11742802_a_at) / Fold change /veh SRD5A1 (11742802_a_at) / RFU TPSAB1 /// TPSB2 (11721975_s_at) / Fold change /veh TPSAB1 /// TPSB2 (11721975_s_at) / RFU GSTM3 (11746129_a_at) / Fold change /veh GSTM3 (11746129_a_at) / RFU IL23R (11737362_x_at) / Fold change /veh IL23R (11737362_x_at) / RFU TMEM51 (11727254_a_at) / Fold change /veh TMEM51 (11727254_a_at) / RFU PIWIL2 (11732686_x_at) / Fold change /veh PIWIL2 (11732686_x_at) / RFU ORM1 (11744905_x_at) / Fold change /veh ORM1 (11744905_x_at) / RFU CCDC152 (11743942_at) / Fold change /veh CCDC152 (11743942_at) / RFU ECM1 (11717891_a_at) / Fold change /veh ECM1 (11717891_a_at) / RFU IL23R (11748794_a_at) / Fold change /veh IL23R (11748794_a_at) / RFU TNFAIP8L3 (11732012_x_at) / Fold change /veh TNFAIP8L3 (11732012_x_at) / RFU MBOAT4 (11741988_at) / Fold change /veh MBOAT4 (11741988_at) / RFU 11764193_at / Fold change /veh 11764193_at / RFU TMEM53 (11763286_at) / Fold change /veh TMEM53 (11763286_at) / RFU MAGEB2 (11727129_at) / Fold change /veh MAGEB2 (11727129_at) / RFU TMEM200A (11744735_a_at) / Fold change /veh TMEM200A (11744735_a_at) / RFU CCDC152 (11751479_a_at) / Fold change /veh CCDC152 (11751479_a_at) / RFU FAM211A (11726209_a_at) / Fold change /veh FAM211A (11726209_a_at) / RFU RGS16 (11746705_a_at) / Fold change /veh RGS16 (11746705_a_at) / RFU VCAN (11755009_s_at) / Fold change /veh VCAN (11755009_s_at) / RFU RHOB (11743442_s_at) / Fold change /veh RHOB (11743442_s_at) / RFU RGS16 (11720943_a_at) / Fold change /veh RGS16 (11720943_a_at) / RFU RGS16 (11720944_at) / Fold change /veh RGS16 (11720944_at) / RFU, VPS4B / Fold change vs veh, VPS4B / RFU, CREB1 / Fold change vs veh, CREB1 / RFU, DNAJC13 / Fold change vs veh, DNAJC13 / RFU, GNAQ / Fold change vs veh, GNAQ / RFU, CDK5R1 / Fold change vs veh, CDK5R1 / RFU, ZRANB3 / Fold change vs veh, ZRANB3 / RFU, CUL4A / Fold change vs veh, CUL4A / RFU, CCNY / Fold change vs veh, CCNY / RFU, UFL1 / Fold change vs veh, UFL1 / RFU, COG3 / Fold change vs veh, COG3 / RFU, DIAPH2 / Fold change vs veh, DIAPH2 / RFU, SKA2 / Fold change vs veh, SKA2 / RFU, AFF3 / Fold change vs veh, AFF3 / RFU, LMF1 / Fold change vs veh, LMF1 / RFU, IPO11 / Fold change vs veh, IPO11 / RFU, DFFB / Fold change vs veh, DFFB / RFU, FOXP1 / Fold change vs veh, FOXP1 / RFU, CARD8 / Fold change vs veh, CARD8 / RFU, STRN3 / Fold change vs veh, STRN3 / RFU, ADK / Fold change vs veh, ADK / RFU, RASSF2 / Fold change vs veh, RASSF2 / RFU, WIPF1 / Fold change vs veh, WIPF1 / RFU, LARP1B / Fold change vs veh, LARP1B / RFU, RASA1 / Fold change vs veh, RASA1 / RFU, RB1 / Fold change vs veh, RB1 / RFU, PPFIA1 / Fold change vs veh, PPFIA1 / RFU, MAT2A / Fold change vs veh, MAT2A / RFU, CCT5 / Fold change vs veh, CCT5 / RFU, WDR92 / Fold change vs veh, WDR92 / RFU, CUX1 / Fold change vs veh, CUX1 / RFU, TTC7A / Fold change vs veh, TTC7A / RFU, TMEM135 / Fold change vs veh, TMEM135 / RFU, DEPTOR / Fold change vs veh, DEPTOR / RFU, CPM / Fold change vs veh, CPM / RFU, DNAJB6 / Fold change vs veh, DNAJB6 / RFU, CACNA2D3 / Fold change vs veh, CACNA2D3 / RFU, DTX4 / Fold change vs veh, DTX4 / RFU, TFCP2 / Fold change vs veh, TFCP2 / RFU, GMCL1 /// GMCL1P1 / Fold change vs veh, GMCL1 /// GMCL1P1 / RFU, AEBP2 / Fold change vs veh, AEBP2 / RFU, SNHG1 /// SNORD22 /// SNORD25 /// SNORD26 /// SNORD27 /// SNORD28 /// SNORD29 /// SNORD31 / Fold change vs veh, SNHG1 /// SNORD22 /// SNORD25 /// SNORD26 /// SNORD27 /// SNORD28 /// SNORD29 /// SNORD31 / Fold change (Aza/veh), C12orf56 (ProbeSet 11735607_a_at) / Fold change (ACY-1035/veh), C12orf56 (ProbeSet 11735607_a_at) / Fold change (Aza/veh), FGFR1OP (ProbeSet 11751329_s_at) / Fold change (ACY-1035/veh), FGFR1OP (ProbeSet 11751329_s_at) / Fold change (Aza/veh), VPS36 (ProbeSet 11739960_a_at) / Fold change (ACY-1035/veh), VPS36 (ProbeSet 11739960_a_at) / RFU SYPL1 (11715823_x_at) / Fold change /veh SYPL1 (11715823_x_at) / RFU IGFBP7 (11715501_s_at) / Fold change /veh IGFBP7 (11715501_s_at) / RFU REEP3 (11722064_at) / Fold change /veh REEP3 (11722064_at) / RFU IGLL1 (11728026_x_at) / Fold change /veh IGLL1 (11728026_x_at): dose or concentration left out as unconfirmed
Settings: ProbeSet 11743286_at; LIST D

Nc1ccc(-c2cccs2)cc1NC(=O)c1ccc2c(c1)cc(C1CC1)n2CCN1CCOCC1 [ACY-1035]
RFU, DTX4: 268.88 RFU
